According to patent publication US20240197820A1, “Bacteriocin for new application” (priority 2021, published 2024):
Entries after “also recorded” stand apart in the source; their conditions may differ. No end group written: not given here.

How the values were obtained:
[1] = tested on: S. epidermidis ATCC 12228; assay: Antimicrobial activity test on inoculated M17 agar plates (inhibition halo); format: cell-based, Staphylococcus epidermidis; conditions: 2 μl of aqueous solution, 1 mg/ml, overnight incubation
Procedure: (§1) Bacterial strains were grown overnight in liquid culture on rotary shakers or on agar plates using M17 media supplemented with 0.5% glucose. S. aureus ATCC 6538 and S. epidermidis ATCC 12228 liquid cultures and agar plates were grown anaerobically at 37° C. Culture volume utilized in MIC assays was 200 μl.
(§2) Antimicrobial activity of bacteriocin peptides was tested on M17 agar plates in Examples 1 and 3.
(§3) In Example 1, 2 μl of cerein 7B peptide (SEQ ID NO: 2) aqueous solutions at a concentration of 1 mg/ml were deposited on inoculated M17 agar plates of S. aureus ATCC 6538 and S. epidermidis ATCC 12228. In the case of S. epidermidis ATCC 12228, an equivalent amount of aureocin A53 aqueous solution (1 mg/ml concentration) was used as positive control.

[2] = tested on: S. aureus ATCC 6538; assay: MIC assay in liquid culture (endpoint OD600); format: cell-based, Staphylococcus aureus; conditions: liquid culture 200 μl, M17 + 0.5% glucose, 37° C., overnight, 2-fold dilutions from 250 μg/ml
Procedure: as §1
(§4) Determination of MIC values of a cerein 7B peptide (SEQ ID NO: 2) was performed in liquid cultures of S. aureus ATCC 6538 and S. epidermidis ATCC 12228. Growth was assessed by measuring endpoint OD600 values in a Spectramax i3 (Molecular Devices, CA, USA). Minimum inhibitory concentration (MIC) was defined as the lowest concentration which inhibited 50% of the growth of cultures as compared to reference cultures not exposed to the peptide. Concentration of the peptide was 250 μg/ml in well 11, diluted 2-fold per subsequent well as shown in Table 3 (concentrations rounded to the second decimal): […]

[3] = tested on: S. epidermidis ATCC 12228; assay: MIC assay in liquid culture (endpoint OD600); format: cell-based, Staphylococcus epidermidis; conditions: tested concentrations 0.24 to 250 μg/ml
Procedure: as §1, §4

[4] = tested on: Lactococcus lactis LMG IL 1403; conditions: cited from earlier work
[5] = tested on: S. aureus ATCC 6538; assay: Antimicrobial activity test on inoculated M17 agar plates (inhibition halo); format: cell-based, Staphylococcus aureus; conditions: 1 mg/ml, overnight incubation
Procedure: as §1, §2, §3
In Example 3, 5 μl of bacteriocin peptides (SEQ ID NO: 2, 4-51) aqueous solutions at a concentration of 1 mg/ml were deposited on inoculated M17 agar plates of S. aureus ATCC 6538. After overnight incubation, the presence of an inhibition halo was considered as a positive result of antimicrobial activity.

Substance	inhibition halo (antimicrobial activity on agar plate) [1]	MIC (lowest concentration which inhibited 50% of the growth of cultures) [2]	growth inhibition in MIC assay [3]	activity against Lactococcus lactis LMG IL 1403 [4]	inhibition halo (antimicrobial activity on agar plate) ([5]; 2 μl of aqueous solution, chemically synthesized peptide)	antimicrobial activity of mutants (inhibition halo) ([5]; 5 μl of aqueous solution, M17 agar plate, peptides synthesized in vitro (PURExpress))
GWWNSWGKCVAGTIGGAGTGGLGGAAAGSAVPVIGTGIGGAIGGVSGGLTGAATFC (cysteines drawn unpaired) [cerein 7B]	no inhibition halo was visible; also recorded: no inhibition halo was present	15.63 µg/mL	No growth inhibition was observed	demonstrated its activity	An inhibition halo was visible	–
GWWNSWGKCVAGTIGGAGTGGLGGAAAGSAVPVIGTGIGGAIGGVSGGLTGAATFCW (mutant 48 (E2)) [SEQ ID NO: 51]	–	–	–	–	–	did not compromise its antimicrobial activity
aureocin A53 [reference compound]	an inhibition halo was present	–	–	–	–	–
